US8927576B2, “HCV inhibitor and therapeutic agent combinations” (PTC Therpeutics, Inc., priority 2009, dated 2015)

system: HCV replicon (replicon cells); assay: Replicon response to antiviral agent(s): luciferase replicon inhibition, combination of HCV inhibitor and therapeutic agent; assay type: cell-based; details: in combination with Cpd 661; range over the combination ratios (Cpd 661:agent) tested; replicon cells treated three days; luciferase (Bright Glo)
Method: Replicon cells were seeded at 5000 cells/well in 96-well plates and were treated with a HCV inhibitor and/or a HCV therapeutic agent for three days. The growth medium consisted of a final concentration of 0.5% DMSO and 10% fetal bovine serum.
The HCV therapeutic agents, an interferon-α, a NS5b HCV polymerase inhibitor Compound 1p and a NS3/NS4a HCV protease inhibitor Compound 2p in the compound treatment samples were each serially diluted to the concentration ratios indicated in Table 1. Replicon cells in the untreated control were not treated with a HCV inhibitor or therapeutic agent. To each concentration of therapeutic agent, the HCV inhibitor Compound 661 was titrated. After three days, Bright Glo agent was used to detect luciferase activity. The activity of the medium without cells was measured as the background control. Replicon inhibition was calculated using the following formula: […]

Compound | Combination Index IC50 | Combination Index IC75 | Combination Index IC90
CC(C)CCn1c(=O)c(C2=Nc3ccccc3S(=O)(=O)N2)c(O)c2ccccc21 [Cpd 1p, 3-(1,1-dioxido-2H-1,2,4-benzothiadiazin-3-yl)-4-hydroxy-1-(3-methylbutyl)quinolin-2(1H)-one] | 0.19-0.94 | 0.13-0.61 | 0.09-0.4
C=C[C@H]1C[C@@]1(NC(=O)[C@@H]1C[C@@H](Oc2cc(-c3ccccc3)nc3cc(OC)ccc23)CN1C(=O)[C@@H](NC(=O)OC(C)(C)C)C(C)(C)C)C(=O)NS(=O)(=O)C1CC1 [Cpd 2p, N-(tert-butoxycarbonyl)-3-methyl-L-valyl-(4R)-N-{(1S,2R)-1-[(cyclopropylsulfonyl)carbamoyl]-2-ethenylcyclopropyl}-4-[(7-methoxy-2-phenylquinolin-4-yl)oxy]-L-prolinamide] | 0.26-0.91 | 0.27-0.66 | 0.29-0.48
interferon-α | 0.36-0.84 | 0.42-0.78 | 0.35-0.72
